How the values were obtained:
[1] = log D by partitioning into octanol and water phases; assay type: physicochemical; settings: pH 6.0, octanol and water
Experimental: More than a dozen esters and amide derivatives of DTPA were synthesized. […] C2E5 is an oil with a viscosity of 163 cps at 25° C. […] The density of C2E5 was determined to be 1.119 g/mL. […] The intrinsic partition coefficient (log P) of C2E5 is difficult to measure due to its instability at high pH. Thus, the log D6.0 was determined by measuring the partitioning of C2E5 into octanol and water phases.

[2] = Equilibrium solubility of C2E5 in aqueous media of varying pH; assay type: physicochemical; settings: aqueous buffer, thermodynamic from solid
[3] = Pharmacokinetics of neat C2E5 and C2E5 non-aqueous gel, plasma LC/MS/MS (Example 9); assay type: in vivo, Sprague-Dawley (SD) rats; settings: SD rat plasma; 200 mg/kg
Experimental: All animal studies were conducted according to a protocol approved by the University of North Carolina at Chapel Hill Institutional Animal Care and Use Committee (IACUC). Ten-week-old adult female Sprague-Dawley (SD) rats weighing from 200 to 300 g were used in these studies (Charles River Labs, Raleigh, N.C.). Food and water were given ad libitum. The animal room was kept at a controlled temperature (23° C.) and light cycle (light exposure from 8 AM to 8 PM). For the duration of the study, the rats were housed in metabolic cages individually with urine and feces collection until euthanasia at 24 h after neat C2E5 or C2E5 gel application.
Neat C2E5 (i.e., only C2E5) at a dose of 200 mg/kg was applied using a 1 mL syringe to the same size area as a positive control. […] The mass of neat C2E5 or C2E5 gel applied was recorded for each animal to permit actual dose determination. […] The animals were observed during the study period and the body weight of the animals was recorded at pre-dose and prior to necropsy.
Acidified plasma samples (100 μL) were first treated with 25 μL of ^13C—C2E5 stable-label internal standard (1000 ng/mL), followed by precipitation with MeCN (400 μL). […] After separation by liquid chromatography, the analytes and internal standard were detected on a triple quadrupole mass spectrometer using heated electrospray ionization (HESI-II) in the positive-ion mode. […]

In the case of `CCOC(=O)CN(CCN(CC(=O)OCC)CC(=O)OCC)CCN(CC(=O)OCC)CC(=O)OCC` [Formulation C2E5, penta-substituted ethyl ester of DTPA], the logD [1] is reported as 2.2, the solubility thermodynamic ([2]; pH 5.7, room temperature) is reported as 20.3 mg/mL and the solubility thermodynamic ([2]; pH 7.1, room temperature) is reported as 3 mg/mL. The “C2E1 in plasma samples” value [3] was “not detected”.

From US20140243411A1 (priority 2011, published 2014)
